Patent US10081624B2, “Heterocyclic compound” (Takeda Pharmaceutical Company Limited, priority 2014, dated 2018)
Entries after “also recorded” stand apart in the source; their conditions may differ.

System: acetylated tubulin
Assay: Measurement of acetylated tubulin in spleen after oral administration (Western blotting)
Type: in vivo
Settings: BALE/c mice, female, 30 mg/kg orally
Description: Compound A (compound of Example 36) and compound B (compound of Example 37) were each orally administered to BALE/c mice (female, Charles River Japan, 8-weeks old when used) at a dose of 30 mg/kg. Compound A and compound B were each suspended in 0.5% methyl cellulose solution, and the suspensions were each orally administered at a dose of 10 mL/kg. For control group, 0.5% methyl cellulose solution was administered. After administration, a part (about 30 mg) of the spleen was recovered into tube containing beads (Lysing Matrix I, Cat. 6918-100, MP Biomedicals), and cryopreserved at −80° C. until used.
0.5 mL RIPA buffer containing protease inhibitor (Cat. 25955-11, Nacalai tesque) was added to the spleen placed in Lysing Matrix I tube, and the spleen was crushed over 20 sec by FastPrep-24. The sample tube was centrifuged (15,000 rpm, 4° C.,) for 5 min, and the supernatant was transferred to another tube. […] The protein amount of the sample was measured using BCA protein assay kit (Cat. 23227, Pierce). […]
The membrane was immersed in blocking reagent (Cat. NYPBR01, TOYOBO) at room temperature for 1 hr, washed, and reacted with primary antibody overnight at 4° C. After washed, the membrane was reacted with secondary antibody at room temperature for 1 hr, and immersed in ECL prime detecting solution (Cat. RPN2232, GE), and the chemiluminescence was detected by luminoimage analyzer LAS3000. […]

Row | Structure (SMILES) | acetylation of tubulin in spleen (protein expression level of acetylated tubulin, fold increase relative to 0.5% methyl cellulose solution administration group)
1 | O=C(NC[C@H]1COCCN1C(=O)c1ccccc1)c1ccc(-c2noc(C(F)(F)F)n2)cc1 [compound A, N-(((3S)-4-benzoylmorpholin-3-yl)methyl)-4-(5-(trifluoromethyl)-1,2,4-oxadiazol-3-yl)benzamide] | increase in acetylated tubulin; also recorded: increased most acetylation of tubulin in spleen 8 hr after administration
2 | O=C(NC[C@H]1COCCN1C(=O)c1cc(Cl)cc(Cl)c1)c1ccc(-c2noc(C(F)(F)F)n2)cc1 [compound B, N-(((3S)-4-(3,5-dichlorobenzoyl)morpholin-3-yl)methyl)-4-(5-(trifluoromethyl)-1,2,4-oxadiazol-3-yl)benzamide] | increase in acetylated tubulin; also recorded: increased most acetylation of tubulin in spleen 8 hr after administration
